# According to ChEMBL document CHEMBL1136375, “Design and synthesis of spiro-cyclopentenyl and spiro-[1,3]-dithiolanyl substituted pyrrolidine-5,5-trans-lactams as inhibitors of hepatitis C virus NS3/4A protease” (Bioorg Med Chem Lett, 2003):
# Tests used:
# Hepatitis C virus [1] = assay: Inhibitory activity against hepatitis C virus protease enzyme(HCV) NS3/4A; assay type: functional, Hepacivirus hominis
# Hepatitis C virus [2] = assay: Inhibitory activity against hepatitis C virus protease enzyme(HCV) by using ELISA replicon assay; assay type: functional, organism-based, Hepacivirus hominis
# [3] = In vitro stability behavior at 4 hr; assay type: physicochemical; settings: read-out: Turnover
Structure (SMILES),k obs / 1 (Hepatitis C virus [1]) [M⁻¹ s⁻¹],IC50 (Hepatitis C virus [2]) [µM],degraded at 4 h [3] [%]
CCN(CC)C(=O)N1C(=O)C2(CCC2)[C@@H]2[C@@H]1CCN2C(=O)[C@@H](NC(=O)OC(C)(C)C)C(C)C,3.3,,
CC(C)[C@H](NC(=O)OC(C)(C)C)C(=O)N1CC[C@H]2[C@H]1C1(CCC1)C(=O)N2C(=O)C1CC1,400,4,27
CSC(=O)N1C(=O)C2(CCC2)[C@@H]2[C@@H]1CCN2C(=O)[C@@H](NC(=O)OC(C)(C)C)C(C)C,154,7.9,
CC(C)C(=O)N1C(=O)C2(SCCS2)[C@@H]2[C@@H]1CCN2C(=O)C(NC(=O)OC(C)(C)C)C(C)C (some centres not stated),362,17,> 50
C=C(C)C(=O)N1C(=O)C2(CCC2)[C@@H]2[C@@H]1CCN2C(=O)[C@@H](NC(=O)OC(C)(C)C)C(C)C,24,,
CC(C)C(NC(=O)OC(C)(C)C)C(=O)N1CC[C@H]2[C@H]1C1(CC=CC1)C(=O)N2C(=O)C1CC1 (relative stereo),19,,
CC(C)C(NC(=O)OC(C)(C)C)C(=O)N1CC[C@H]2[C@H]1C1(SCCS1)C(=O)N2C(=O)C1CC1 (relative stereo),621,> 100,> 50
CC(C)C(=O)N1C(=O)C2(CCC2)[C@@H]2[C@@H]1CCN2C(=O)[C@@H](NC(=O)OC(C)(C)C)C(C)C (relative stereo),166,3.1,5
